Results published in article PMC11845477, “Exploring the principles behind antibiotics with limited resistance” (Nature Communications, 2025).

Legend:
[1] = tested on: E. coli BW25113: pUCacrAB; assay: AcrAB-TolC efflux overexpression screen, relative MIC; format: cell-based, Escherichia coli; conditions: pUCacrAB vs empty pUC118 control
Procedure: Fig. 6 The impact of AcrAB-TolC activity on antibiotic susceptibility. E. coli strains with AcrAB-TolC depletion (BW25113-ΔacrB) and overexpression (BW25113: pUCacrAB) were treated with various antibiotics, and the level of resistance was determined as minimum inhibitory concentration (MIC) relative to a wild-type strain, presented on a logarithmic scale (log2). Each bar represents the mean resistance level (susceptibility, i.e., level of resistance < 0; and resistance, i.e., level of resistance > 0) to antibiotics induced by acrAB overexpression (blue bars; E. coli with a multicopy plasmid of the acrAB genes (pUCacrAB)) and acrB deletion (red bars; mutant E. coli with acrB gene deletion (ΔacrB)) compared to the wild-type. Data are presented as mean values of 3 biological replicates ± SD. […] Detailed information on antibiotic and bacterial strain abbreviations is provided in Supplementary Data 1. Source data are provided as a Source Data file. For information on mode of action groups, refer to Table 1.
For the efflux deficiency screen, the ΔacrB mutant of E. coli K12 BW25113[86] and its equivalent wild-type control strain with intact gene were utilized. In contrast, BW25113 carrying a multicopy acrAB plasmid (pUCacrAB)[87] and its control strain harboring an empty pUC118 plasmid were used to overexpress the acrAB efflux system. According to established protocols via P1 transduction, the suitable acrB deletion mutant (ΔacrB BW25113) was created, while the pUCacrAB plasmid was kindly provided by Kunihiko Nishino and Akihito Yamaguchi (Osaka University, Osaka, Japan). In a prior study, both strains were employed. Since the copy number of the plasmid carrying the efflux pump is controlled by native promoters, external induction is unnecessary.
Antibiotic susceptibilities of these strains were evaluated using a modified version of the standard broth dilution method. In 96-well microtiter plates containing fresh MHB medium, or supplemented MS medium in case of SCH79797, ten-step serial dilutions of an antibiotic from a stock solution were made (2 wells per antibiotic concentration per strain). The two wells contained only supplemented media without any antibiotics […]. Strains were incubated overnight at 37 °C with continuous agitation. Additionally, plasmid containing strains were grown in the presence of 100 µg/mL ampicillin. The culture was diluted to yield a cell suspension with 5 ×10^5 cells/mL and then inoculated into the wells of the microtiter plate. To determine the medium’s background OD value, the first column of the 96-well plate contained solely MHB without inoculum. Prior to the measurement, the plates were incubated at 37 °C with continuous shaking at 900 rpm with 3 mm throw. OD600 values were determined in a microplate reader after 18 hours of incubation (Biotek Synergy 2). The minimum inhibitory concentration (MIC) was determined as the lowest concentration of antibiotic at which the OD600 values were less than 0.05 after subtracting the background value. The log2 of the relative MIC was computed using the following equation:2 log2relativeMICpUCacrAB=MICpUCacrAB/MICpUC118 3 log2relativeMICΔacrB=MICΔacrB/MICwt

[2] = tested on: A. baumannii ATCC 17978 (SEN) and A. baumannii ATCC BAA-1605 (MDR); assay: Adaptive laboratory evolution (ALE), relative MIC of evolved lines; format: cell-based, Acinetobacter baumannii; conditions: for Relative MIC (log10): AB-SEN (Acinetobacter baumannii ATCC 17978)
Source text: Using the same set of bacterial strains, we initiated adaptive laboratory evolution with the aim to maximize the level of antibiotic resistance in the populations achieved during a longer, but fixed time period.
An established protocol for adaptive laboratory evolution[46],[73] was followed to propagate populations with the highest resistance levels. Starting with an antibiotic concentration that caused approximately 50% growth inhibition, ten parallel populations for each antibiotic-ancestor strain combination were grown for 72 hours at 37 °C with continuous shaking (300 RPM). MHB broth medium was used unless stated otherwise. After each incubation, 20 µl of each culture was transferred to four new wells containing fresh medium with increasing antibiotic concentrations (0.5×, 1×, 1.5×, and 2.5× the previous concentration) in a chessboard layout to monitor potential cross-contamination. Growth was monitored by measuring OD600 using a Biotek Synergy 2 microplate reader, and only populations grown in the highest drug concentration with an OD600 > 0.2 were transferred further.
A robotic liquid handling system was used to automatically prepare a 11 to 16-step serial dilution in 384-well microtiter plates (Greiner). A final concentration of 5 × 10^5 bacterial cells per mL were inoculated into each well containing 60 µL MHB medium. Bacterial cultures were incubated at 37 °C with continuous shaking (Infors shaker, 900 rpm with 3 mm throw) for 18 hours (2 replicates from each). Cell growth was monitored by measuring the optical density (OD600 values, using Biotek Synergy microplate reader). MIC was defined as the antibiotic concentration of complete growth inhibition (i.e., OD600 < 0.05). Relative MIC was calculated as follows:1 relativeMIC=MICevolved/MICancestor […]
Supplementary Figure 4. Resistance levels following adaptive laboratory evolution across bacterial strains. The level of resistance was measured as the fold change in relative MIC between evolved and ancestral strains after ~60 days of adaptive laboratory evolution. Data are grouped by bacterial strain (A. baumannii (AB), E. coli (EC), K. pneumoniae (KP), and P. aeruginosa (PA)) and categorized as either multidrug-resistant (MDR) or sensitive (SEN). Each data point represents a laboratory evolved line, and boxplots show the median, first and third quartiles, with whiskers indicating the 5th and 95th percentiles.
Statistical analysis was performed using two-sided Dunn’s post-hoc test with Benjamini-Hochberg correction for multiple comparisons (****/ ***/ **/ * indicates p < 0.0001/ 0.001/ 0.01/ 0.05). For detailed information on antibiotic and bacterial species, see Supplementary Table 1. For mode of action groups, refer to Table 1. Source data are provided as a Source Data file.

## CN[C@@H]1[C@@H](O[C@H]2O[C@H](CO)[C@@H](N)[C@H](O)[C@H]2O)OC2C[C@@H](N)[C@@H](O[C@H]3[C@H](O)[C@@H](O)[C@H](N)C[C@@H]3N)OC2[C@@H]1O (some centres unmarked) [Apramycin]
[1]; replicate 1
  Relative MIC (log2): 0
[1]; replicate 2
  Relative MIC (log2): 0
[1]; replicate 3
  Relative MIC (log2): 0
[2]; AB-SEN (ATCC 17978), evolved line 1, MIC of evolved line / MIC of ancestor
  Relative MIC: 32
[2]; AB-SEN (ATCC 17978), evolved line 2, MIC of evolved line / MIC of ancestor
  Relative MIC: 64
[2]; AB-SEN (ATCC 17978), evolved line 3, MIC of evolved line / MIC of ancestor
  Relative MIC: 32
[2]; AB-SEN (ATCC 17978), evolved line 4, MIC of evolved line / MIC of ancestor
  Relative MIC: 16
[2]; AB-SEN (ATCC 17978), evolved line 5, MIC of evolved line / MIC of ancestor
  Relative MIC: 32
[2]; AB-SEN (ATCC 17978), evolved line 6, MIC of evolved line / MIC of ancestor
  Relative MIC: 16
[2]; AB-SEN (ATCC 17978), evolved line 7, MIC of evolved line / MIC of ancestor
  Relative MIC: 64
[2]; AB-SEN (ATCC 17978), evolved line 8, MIC of evolved line / MIC of ancestor
  Relative MIC: 32
[2]; AB-SEN (ATCC 17978), evolved line 9, MIC of evolved line / MIC of ancestor
  Relative MIC: 32
[2]; AB-SEN (ATCC 17978), evolved line 10, MIC of evolved line / MIC of ancestor
  Relative MIC: 32
[2]; evolved line 2 adapted to the named antibiotic
  Relative MIC (log10): 1.806
[2]; evolved line 3 adapted to the named antibiotic
  Relative MIC (log10): 1.505
[2]; evolved line 6 adapted to the named antibiotic
  Relative MIC (log10): 1.204
[2]; evolved line 9 adapted to the named antibiotic
  Relative MIC (log10): 1.505
[2]; evolved line 10 adapted to the named antibiotic
  Relative MIC (log10): 1.505
[2]; Acinetobacter baumannii ATCC 17978 (AB-SEN), evolved line 1
  Relative MIC: 32
[2]; Acinetobacter baumannii ATCC 17978 (AB-SEN), evolved line 2
  Relative MIC: 64
[2]; Acinetobacter baumannii ATCC 17978 (AB-SEN), evolved line 3
  Relative MIC: 32
[2]; Acinetobacter baumannii ATCC 17978 (AB-SEN), evolved line 4
  Relative MIC: 16
[2]; Acinetobacter baumannii ATCC 17978 (AB-SEN), evolved line 5
  Relative MIC: 32
[2]; Acinetobacter baumannii ATCC 17978 (AB-SEN), evolved line 6
  Relative MIC: 16
[2]; Acinetobacter baumannii ATCC 17978 (AB-SEN), evolved line 7
  Relative MIC: 64
[2]; Acinetobacter baumannii ATCC 17978 (AB-SEN), evolved line 8
  Relative MIC: 32
[2]; Acinetobacter baumannii ATCC 17978 (AB-SEN), evolved line 9
  Relative MIC: 32
[2]; Acinetobacter baumannii ATCC 17978 (AB-SEN), evolved line 10
  Relative MIC: 32

## C[C@@H]1CN2c3c(cc4c(N5C(=O)OC[C@@H]5C)noc4c3F)CC3(C(=O)NC(=O)NC3=O)[C@H]2[C@H](C)O1 [Zoliflodacin]
[1]; replicate 1
  Relative MIC (log2): 2
[1]; replicate 2
  Relative MIC (log2): 2
[1]; replicate 3
  Relative MIC (log2): 2

## POL7306
[2]; ALE, Acinetobacter baumannii ATCC 17978 (AB-SEN), evolved line 1
  Relative MIC: 256
[2]; ALE, Acinetobacter baumannii ATCC 17978 (AB-SEN), evolved line 2
  Relative MIC: 32
[2]; ALE, Acinetobacter baumannii ATCC 17978 (AB-SEN), evolved line 3
  Relative MIC: 16
[2]; ALE, Acinetobacter baumannii ATCC 17978 (AB-SEN), evolved line 4
  Relative MIC: 2
[2]; ALE, Acinetobacter baumannii ATCC 17978 (AB-SEN), evolved line 6
  Relative MIC: 32
[2]; ALE, Acinetobacter baumannii ATCC 17978 (AB-SEN), evolved line 7
  Relative MIC: 2
[2]; ALE, Acinetobacter baumannii ATCC 17978 (AB-SEN), evolved line 8
  Relative MIC: 2
[2]; ALE, Acinetobacter baumannii ATCC 17978 (AB-SEN), evolved line 9
  Relative MIC: 256
[2]; ALE, Acinetobacter baumannii ATCC 17978 (AB-SEN), evolved line 10
  Relative MIC: 32
[2]; ALE, Acinetobacter baumannii ATCC BAA 1605 (AB-MDR), evolved line 1
  Relative MIC: 2
[2]; ALE, Acinetobacter baumannii ATCC BAA 1605 (AB-MDR), evolved line 2
  Relative MIC: 16
[2]; ALE, Acinetobacter baumannii ATCC BAA 1605 (AB-MDR), evolved line 3
  Relative MIC: 16
[2]; ALE, Acinetobacter baumannii ATCC BAA 1605 (AB-MDR), evolved line 4
  Relative MIC: 16
[2]; ALE, Acinetobacter baumannii ATCC BAA 1605 (AB-MDR), evolved line 5
  Relative MIC: 16
[2]; ALE, Acinetobacter baumannii ATCC BAA 1605 (AB-MDR), evolved line 6
  Relative MIC: 2
[2]; ALE, Acinetobacter baumannii ATCC BAA 1605 (AB-MDR), evolved line 7
  Relative MIC: 16
[2]; ALE, Acinetobacter baumannii ATCC BAA 1605 (AB-MDR), evolved line 8
  Relative MIC: 8
[2]; ALE, Acinetobacter baumannii ATCC BAA 1605 (AB-MDR), evolved line 9
  Relative MIC: 32
[2]; ALE, Acinetobacter baumannii ATCC BAA 1605 (AB-MDR), evolved line 10
  Relative MIC: 16

## polymyxin-B
[2]; AB-MDR ATCC BAA 1605, evolved line 1
  MIC of evolved line: 512 µg/mL
[2]; AB-MDR ATCC BAA 1605, evolved line 2
  MIC of evolved line: 512 µg/mL
[2]; AB-MDR ATCC BAA 1605, evolved line 3
  MIC of evolved line: 256 µg/mL
[2]; AB-MDR ATCC BAA 1605, evolved line 4
  MIC of evolved line: 1020 µg/mL
[2]; AB-MDR ATCC BAA 1605, evolved line 5
  MIC of evolved line: 1020 µg/mL
[2]; AB-MDR ATCC BAA 1605, evolved line 6
  MIC of evolved line: 1020 µg/mL
[2]; AB-MDR ATCC BAA 1605, evolved line 7
  MIC of evolved line: 1020 µg/mL
[2]; AB-MDR ATCC BAA 1605, evolved line 8
  MIC of evolved line: 1020 µg/mL
[2]; AB-MDR ATCC BAA 1605, evolved line 9
  MIC of evolved line: 1020 µg/mL
[2]; AB-MDR ATCC BAA 1605, evolved line 10
  MIC of evolved line: 1020 µg/mL
[2]; AB-SEN (A. baumannii ATCC 17978), evolved line 1 of the given antibiotic
  MIC of evolved line: 512 µg/mL
[2]; AB-SEN (A. baumannii ATCC 17978), evolved line 2 of the given antibiotic
  MIC of evolved line: 512 µg/mL
[2]; AB-SEN (A. baumannii ATCC 17978), evolved line 3 of the given antibiotic
  MIC of evolved line: 256 µg/mL
[2]; AB-SEN (A. baumannii ATCC 17978), evolved line 4 of the given antibiotic
  MIC of evolved line: 512 µg/mL
[2]; AB-SEN (A. baumannii ATCC 17978), evolved line 5 of the given antibiotic
  MIC of evolved line: 512 µg/mL
[2]; AB-SEN (A. baumannii ATCC 17978), evolved line 6 of the given antibiotic
  MIC of evolved line: 512 µg/mL
[2]; AB-SEN (A. baumannii ATCC 17978), evolved line 8 of the given antibiotic
  MIC of evolved line: 256 µg/mL
[2]; AB-SEN (A. baumannii ATCC 17978), evolved line 9 of the given antibiotic
  MIC of evolved line: 256 µg/mL
